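Test compounds were applied to cells in 96-well plates for 48 hours at 5 doses. Here, GI50 denotes the concentration required for 50% inhibition of growth. TGI: concentration producing complete growth inhibition.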
How the values were obtained:
Experiment in all cases: NCI anticancer screen, dose series, 48 h
EKVX NSCLC = system: EKVX NSCLC
K-562 leukemia = system: K-562 leukemia
NCI-H522 lung = system: NCI-H522 lung
OVCAR-3 ovarian = system: OVCAR-3 ovarian
OVCAR-4 ovarian = system: OVCAR-4 ovarian
SF-268 CNS = system: SF-268 CNS
SF-539 CNS = system: SF-539 CNS
U251 CNS = system: U251 CNS
UACC-257 melanoma = system: UACC-257 melanoma
MDA-MB-231 breast = system: MDA-MB-231 breast

SMILES	TGI (EKVX NSCLC) [µM]	TGI (K-562 leukemia) [µM]	TGI (NCI-H522 lung) [µM]	TGI (OVCAR-3 ovarian) [µM]	TGI (OVCAR-4 ovarian) [µM]	TGI (SF-268 CNS) [µM]	TGI (SF-539 CNS) [µM]	TGI (U251 CNS) [µM]	TGI (UACC-257 melanoma) [µM]	GI50 (EKVX NSCLC) [nM]	GI50 (K-562 leukemia) [nM]	GI50 (MDA-MB-231 breast) [nM]	TGI (MDA-MB-231 breast) [nM]	GI50 (NCI-H522 lung) [nM]	GI50 (OVCAR-3 ovarian) [nM]	GI50 (SF-268 CNS) [nM]	GI50 (SF-539 CNS) [nM]	GI50 (U251 CNS) [nM]	GI50 (UACC-257 melanoma) [nM]	GI50 (OVCAR-4 ovarian) [nM]
CC#CCC1CCC(OCC)=CC1=O (configuration not stated)	> 100	> 100	> 100	> 100	> 100	> 100	> 100	> 100	> 100	–	–	–	–	–	–	–	–	–	–	–
CC/C=C\C/C=C\C/C=C\CCCCCCCC(=O)OCC(O)CO (configuration not stated)	> 100	49	> 77.1	> 74.5	> 100	> 100	> 100	> 73.7	> 100	–	–	–	–	–	–	–	–	–	–	–
N#CC(=C1C=CC(=NO)C=C1)c1ccc(Cl)cc1	–	–	7.66	13.2	60.4	48	25.4	34.3	–	–	–	–	–	–	–	–	–	–	–	–
C1CCC([PH+](C2CCCCC2)C2CCCCC2[PH+](C2CCCCC2)C2CCCCC2)CC1.[Au].[CH-]1CCCCC1CC1CCCC[N-]1 (configuration not stated)	1.97	> 100	1.56	1.2	–	2.11	1.41	1.59	1.94	302	246	227	689	290	318	405	355	199	323	–
C/C(=C\c1ccc2ccccc2c1)[N+](=O)[O-]	–	7.99	3	3.37	3.01	3.72	3.07	3.6	2.9	–	2230	2020	3920	1580	1910	1910	1640	1770	1560	1650
CO[C@H]1CC(O[C@@H]2/C(C)=C/C[C@@H]3C[C@@H](C[C@]4(C=C[C@H](C)[C@@H](C5CCCCC5)O4)O3)OC(=O)[C@@H]3C=C(C)[C@@H](O)[C@H]4OC/C(=C\C=C\[C@@H]2C)[C@]43O)O[C@@H](C)C1O[C@H]1C[C@H](OC)[C@@H](O)[C@H](C)O1 (some centres not stated)	–	–	–	3.12	2.88	3.18	–	–	–	–	–	–	–	–	1660	1690	–	–	–	1520
FC(F)(F)c1ccc(-c2cnc(-c3ncon3)nc2NC2CCCCCC2)cc1	–	> 100	82.6	> 100	> 100	> 100	> 100	–	> 100	–	34800	22500	89000	14200	36800	64000	> 100000	–	53200	37200
O=C1CC(c2c[nH]c3ccccc23)C(=O)N1 (configuration not stated)	> 100	> 100	–	> 100	> 100	–	> 100	> 100	> 100	–	–	–	–	–	–	–	–	–	–	–
CC(C)C[C@H](NC(=O)CNC(=O)c1cc(Cl)ccc1Cl)B1OC(=O)CC(CC(=O)O)(C(=O)O)O1 (some centres not stated)	30.8	> 100	0.056	0.0791	19	2.43	0.0528	5.64	–	369	74	53.2	485	21.7	26.9	72.3	23	87.4	–	73.3
